Measurements taken from US20260217717A1, “CDK2 INHIBITORS” (BLUEPRINT MEDICINES CORPORATION, priority 2023, published 2026).

What was measured:
[1] = biological target: T1, CDK2/Cyclin E (Homo sapiens, UniProt P24941); experiment: CDK2/Cyclin E enzymatic phosphorylation assay (Caliper mobility shift); format: biochemical; settings: read-out: Enzyme CDK2/cyclin E IC50; further: 1.0 mM ATP or ATP Km
T1 construct: purchased Eurofins 14-475
Protocol: (§1) Reactions proceeded until between 10% to 20% total peptides were phosphorylated at room temperature (25° C.) and were terminated with 35 mM 2,2′,2″,2′″-(ethane-1,2-diyldinitrilo)tetraacetic acid (EDTA). Product was detected using the Caliper mobility shift detection method where the phosphorylated peptide (product) and substrate were electrophoretically separated and measured. Percent activity was plotted against log concentration of compound and points to generate an apparent IC50.

[2] = biological target: T2, CDK1/Cyclin B1 (Homo sapiens, UniProt P06493); experiment: CDK1/Cyclin B1 enzymatic phosphorylation assay (Caliper mobility shift); format: biochemical; settings: read-out: Enzyme CDK1/cyclin B1 IC50
T2 construct: GST; purchased BPS 40454
Protocol: as §1

T2 sequence (P06493 whole entry): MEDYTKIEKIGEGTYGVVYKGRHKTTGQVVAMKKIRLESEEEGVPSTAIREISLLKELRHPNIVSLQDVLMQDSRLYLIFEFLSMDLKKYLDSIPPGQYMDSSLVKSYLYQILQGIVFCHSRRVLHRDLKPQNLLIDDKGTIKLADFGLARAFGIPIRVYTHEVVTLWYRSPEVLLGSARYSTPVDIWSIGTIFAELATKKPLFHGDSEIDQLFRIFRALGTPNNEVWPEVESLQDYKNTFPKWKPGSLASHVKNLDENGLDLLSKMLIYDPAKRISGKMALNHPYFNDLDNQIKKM
T2 sequence (P14635 whole entry partner): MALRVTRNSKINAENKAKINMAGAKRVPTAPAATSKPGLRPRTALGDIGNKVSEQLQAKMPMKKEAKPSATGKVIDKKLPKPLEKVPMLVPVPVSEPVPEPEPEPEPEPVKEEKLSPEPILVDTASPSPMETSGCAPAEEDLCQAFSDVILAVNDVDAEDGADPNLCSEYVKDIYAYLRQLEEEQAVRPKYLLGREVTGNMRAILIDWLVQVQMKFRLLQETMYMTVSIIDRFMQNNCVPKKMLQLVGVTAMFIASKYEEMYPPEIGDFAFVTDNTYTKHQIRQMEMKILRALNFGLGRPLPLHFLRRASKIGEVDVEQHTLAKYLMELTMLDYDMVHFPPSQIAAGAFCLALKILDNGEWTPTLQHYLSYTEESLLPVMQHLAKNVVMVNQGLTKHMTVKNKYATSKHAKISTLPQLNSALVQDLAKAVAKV

| IC50 [1] [nM] | IC50 [2] [nM] | Structure (SMILES) |
| --- | --- | --- |
| 2.3 | 907 | CC[C@@H]([C@H](C)O)n1ncc2ncc(Nc3cc(C(C)C)[nH]n3)nc21 (single isomer, unassigned) [Example 13, (2S,3S)-3-(6-((5-isopropyl-1H-pyrazol-3-yl)amino)-1H-pyrazolo[3,4-b]pyrazin-1-yl)pentan-2-ol or (2S,3R)-3-(6-((5-isopropyl-1H-pyrazol-3-yl)amino)-1H-pyrazolo[3,4-b]pyrazin-1-yl)pentan-2-ol] |
| 23.9 | 3130 | CC[C@H]([C@H](C)O)n1ncc2ncc(Nc3cc(C(C)C)[nH]n3)nc21 (single isomer, unassigned) [Example 14, (2S,3R)-3-(6-((5-isopropyl-1H-pyrazol-3-yl)amino)-1H-pyrazolo[3,4-b]pyrazin-1-yl)pentan-2-ol or (2S,3S)-3-(6-((5-isopropyl-1H-pyrazol-3-yl)amino)-1H-pyrazolo[3,4-b]pyrazin-1-yl)pentan-2-ol] |
| 4.5 | 1380 | Cc1cc(Nc2cnc3cnn([C@@H](C)c4cc(F)ccn4)c3n2)n[nH]1 (single isomer, unassigned) [Example 19, (S)-1-(1-(4-fluoropyridin-2-yl)ethyl)-N-(5-methyl-1H-pyrazol-3-yl)-1H-pyrazolo[3,4-b]pyrazin-6-amine or (R)-1-(1-(4-fluoropyridin-2-yl)ethyl)-N-(5-methyl-1H-pyrazol-3-yl)-1H-pyrazolo[3,4-b]pyrazin-6-amine] |
| 7.4 | 1010 | C[C@H](c1cc(Nc2cnc3cnn(CC4CCOCC4)c3n2)n[nH]1)C(F)F (single isomer, unassigned) [Example 20] |
| 5.4 | 595 | C[C@@H](c1cc(Nc2cnc3cnn(CC4CCOCC4)c3n2)n[nH]1)C(F)F (single isomer, unassigned) [Example 21] |
| 29.2 | 5660 | Cc1cc(Nc2cnc3cnn([C@@H](C)c4cccnc4)c3n2)n[nH]1 [Example 15, (S)-N-(5-methyl-1H-pyrazol-3-yl)-1-(1-(pyridin-3-yl)ethyl)-1H-pyrazolo[3,4-b]pyrazin-6-amine] |
| 8.5 | 1020 | c1nc2cnn(C[C@H]3[C@@H]4COC[C@@H]43)c2nc1Nc1cc(C2COC2)[nH]n1 [Example 16, 1-(((1R,5S,6s)-3-oxabicyclo[3.1.0]hexan-6-yl)methyl)-N-(5-(oxetan-3-yl)-1H-pyrazol-3-yl)-1H-pyrazolo[3,4-b]pyrazin-6-amine] |
| 14.8 | 1650 | Cc1nc2cnn(CC3CCOCC3)c2nc1Nc1cc(C(C)C)[nH]n1 [Example 17, N-(5-isopropyl-1H-pyrazol-3-yl)-5-methyl-1-((tetrahydro-2H-pyran-4-yl)methyl)-1H-pyrazolo[3,4-b]pyrazin-6-amine] |
| 15.1 | 3230 | Cc1nc2cnn(Cc3cccnc3)c2nc1Nc1cc(C(C)C)[nH]n1 [Example 18, N-(5-isopropyl-1H-pyrazol-3-yl)-5-methyl-1-(pyridin-3-ylmethyl)-1H-pyrazolo[3,4-b]pyrazin-6-amine] |
| 8.8 | 3460 | C[C@@H](c1cccnc1F)n1ncc2ncc(Nc3cc(C#N)[nH]n3)nc21 [Example 22, (S)-3-((1-(1-(2-fluoropyridin-3-yl)ethyl)-1H-pyrazolo[3,4-b]pyrazin-6-yl)amino)-1H-pyrazole-5-carbonitrile] |
| 14.1 | 1540 | COc1ncccc1[C@H](C)n1ncc2ncc(Nc3cc(C)[nH]n3)nc21 [Example 23, (S)-1-(1-(2-methoxypyridin-3-yl)ethyl)-N-(5-methyl-1H-pyrazol-3-yl)-1H-pyrazolo[3,4-b]pyrazin-6-amine] |
| 20.3 | 3330 | C[C@@H](c1cccnc1Cl)n1ncc2ncc(Nc3cc(C#N)[nH]n3)nc21 [Example 24, (S)-3-((1-(1-(2-chloropyridin-3-yl)ethyl)-1H-pyrazolo[3,4-b]pyrazin-6-yl)amino)-1H-pyrazole-5-carbonitrile] |
| 76.1 | 10000 | C[C@@H](c1ccccn1)n1ncc2ncc(Nc3cc(C#N)[nH]n3)nc21 [Example 25, (S)-3-((1-(1-(pyridin-2-yl)ethyl)-1H-pyrazolo[3,4-b]pyrazin-6-yl)amino)-1H-pyrazole-5-carbonitrile] |
| 4.2 | 1060 | Cc1cc(Nc2cnc3cnn([C@@H](C)c4cccnc4Cl)c3n2)n[nH]1 [Example 26, (S)-1-(1-(2-chloropyridin-3-yl)ethyl)-N-(5-methyl-1H-pyrazol-3-yl)-1H-pyrazolo[3,4-b]pyrazin-6-amine] |
| 96.1 | 10000 | Cc1cc(Nc2cnc3c(Cl)nn([C@@H](C)c4cccnc4)c3n2)n[nH]1 [Example 27, (S)-3-chloro-N-(5-methyl-1H-pyrazol-3-yl)-1-(1-(pyridin-3-yl)ethyl)-1H-pyrazolo[3,4-b]pyrazin-6-amine] |
| 5.6 | 2700 | Cc1cc(Nc2cnc3c(Cl)nn([C@@H](C)c4cccnc4F)c3n2)n[nH]1 [Example 28, (S)-3-chloro-1-(1-(2-fluoropyridin-3-yl)ethyl)-N-(5-methyl-1H-pyrazol-3-yl)-1H-pyrazolo[3,4-b]pyrazin-6-amine] |
| 0.2 | 159 | CC(C)c1cc(Nc2cnc3cnn([C@@H](C)c4cccnc4)c3n2)n[nH]1 [Example 29, (S)-N-(5-isopropyl-1H-pyrazol-3-yl)-1-(1-(pyridin-3-yl)ethyl)-1H-pyrazolo[3,4-b]pyrazin-6-amine] |

More lines, now with the values behind:

| Structure (SMILES) | IC50 [1] [nM] | IC50 [2] [nM] |
| --- | --- | --- |
| CC(C)c1cc(Nc2cnc3cnn(C[C@H]4CCCOC4)c3n2)n[nH]1 (single isomer, unassigned) [Example 9, (R)-N-(5-isopropyl-1H-pyrazol-3-yl)-1-((tetrahydro-2H-pyran-3-yl)methyl)-1H-pyrazolo[3,4-b] pyrazin-6-amine or (S)-N-(5-isopropyl-1H-pyrazol-3-yl)-1-((tetrahydro-2H-pyran-3-yl)methyl)-1H-pyrazolo[3,4-b]pyrazin-6-amine] | 0.6 | 144 |
| CC(C)c1cc(Nc2cnc3cnn(C[C@@H]4CCCOC4)c3n2)n[nH]1 (single isomer, unassigned) [Example 10, (S)-N-(5-isopropyl-1H-pyrazol-3-yl)-1-((tetrahydro-2H-pyran-3-yl)methyl)-1H-pyrazolo[3,4-b]pyrazin-6-amine or (R)-N-(5-isopropyl-1H-pyrazol-3-yl)-1-((tetrahydro-2H-pyran-3-yl)methyl)-1H-pyrazolo[3,4-b]pyrazin-6-amine] | 0.5 | 147 |
| CC(C)c1cc(Nc2cnc3cnn(C[C@H]4CCOC4)c3n2)n[nH]1 (single isomer, unassigned) [Example 11, (R)-N-(5-isopropyl-1H-pyrazol-3-yl)-1-((tetrahydrofuran-3-yl)methyl)-1H-pyrazolo[3,4-b]pyrazin-6-amine or (S)-N-(5-isopropyl-1H-pyrazol-3-yl)-1-((tetrahydrofuran-3-yl)methyl)-1H-pyrazolo[3,4-b]pyrazin-6-amine] | 3.8 | 1270 |
| CC(C)c1cc(Nc2cnc3cnn(C[C@@H]4CCOC4)c3n2)n[nH]1 (single isomer, unassigned) [Example 12, (S)-N-(5-isopropyl-1H-pyrazol-3-yl)-1-((tetrahydrofuran-3-yl)methyl)-1H-pyrazolo[3,4-b]pyrazin-6-amine or (R)-N-(5-isopropyl-1H-pyrazol-3-yl)-1-((tetrahydrofuran-3-yl)methyl)-1H-pyrazolo[3,4-b]pyrazin-6-amine] | 0.5 | 119 |
| CC(C)c1cc(Nc2cnc3cnn(CCCO)c3n2)n[nH]1 [Example 1, 3-(6-((5-isopropyl-1H-pyrazol-3-yl)amino)-1H-pyrazolo[3,4-b]pyrazin-1-yl)propan-1-ol] | 21.5 | 2990 |
| C[C@@H](c1cccnc1)n1ncc2ncc(Nc3cc(C(F)F)[nH]n3)nc21 [Example 2, (S)-N-(5-(difluoromethyl)-1H-pyrazol-3-yl)-1-(1-(pyridin-3-yl)ethyl)-1H-pyrazolo[3,4-b]pyrazin-6-amine] | 22.8 | 6030 |
| Cc1cc(Nc2cnc3cnn(Cc4cccnc4)c3n2)n[nH]1 [Example 3, N-(5-methyl-1H-pyrazol-3-yl)-1-(pyridin-3-ylmethyl)-1H-pyrazolo[3,4-b]pyrazin-6-amine] | 78.1 | 9140 |
| Cc1nn(Cc2cccnc2)c2nc(Nc3cc(C4COC4)[nH]n3)cnc12 [Example 4, 3-methyl-N-(5-(oxetan-3-yl)-1H-pyrazol-3-yl)-1-(pyridin-3-ylmethyl)-1H-pyrazolo[3,4-b]pyrazin-6-amine] | 36.3 | 5000 |
| Cc1cc(Nc2cnc3cnn(C[C@H]4CCCOC4)c3n2)n[nH]1 [Example 5, (R)-N-(5-methyl-1H-pyrazol-3-yl)-1-((tetrahydro-2H-pyran-3-yl)methyl)-1H-pyrazolo[3,4-b]pyrazin-6-amine] | 57.6 | 5230 |
| Cc1nn(CC2CCOCC2)c2nc(Nc3cc(C(C)C)[nH]n3)cnc12 [Example 6, N-(5-isopropyl-1H-pyrazol-3-yl)-3-methyl-1-((tetrahydro-2H-pyran-4-yl)methyl)-1H-pyrazolo[3,4-b]pyrazin-6-amine] | 3.7 | 388 |
| Cc1nn(Cc2cccnc2)c2nc(Nc3cc(C(C)C)[nH]n3)cnc12 [Example 7, N-(5-isopropyl-1H-pyrazol-3-yl)-3-methyl-1-(pyridin-3-ylmethyl)-1H-pyrazolo[3,4-b]pyrazin-6-amine] | 1.3 | 234 |
| Cc1nn(CC2CCOCC2)c2nc(Nc3cc(C4COC4)[nH]n3)cnc12 [Example 8, 3-methyl-N-(5-(oxetan-3-yl)-1H-pyrazol-3-yl)-1-((tetrahydro-2H-pyran-4-yl)methyl)-1H-pyrazolo[3,4-b]pyrazin-6-amine] | 37.1 | 2580 |
